Target: pyruvate kinase isozyme type M2 (PKM2) (Homo sapiens, UniProt P14618)
Assay: SPR with immobilized recombinant human PKM2
Format: binding

Chain of pyruvate kinase isozyme type M2 (PKM2) (P14618 2-531): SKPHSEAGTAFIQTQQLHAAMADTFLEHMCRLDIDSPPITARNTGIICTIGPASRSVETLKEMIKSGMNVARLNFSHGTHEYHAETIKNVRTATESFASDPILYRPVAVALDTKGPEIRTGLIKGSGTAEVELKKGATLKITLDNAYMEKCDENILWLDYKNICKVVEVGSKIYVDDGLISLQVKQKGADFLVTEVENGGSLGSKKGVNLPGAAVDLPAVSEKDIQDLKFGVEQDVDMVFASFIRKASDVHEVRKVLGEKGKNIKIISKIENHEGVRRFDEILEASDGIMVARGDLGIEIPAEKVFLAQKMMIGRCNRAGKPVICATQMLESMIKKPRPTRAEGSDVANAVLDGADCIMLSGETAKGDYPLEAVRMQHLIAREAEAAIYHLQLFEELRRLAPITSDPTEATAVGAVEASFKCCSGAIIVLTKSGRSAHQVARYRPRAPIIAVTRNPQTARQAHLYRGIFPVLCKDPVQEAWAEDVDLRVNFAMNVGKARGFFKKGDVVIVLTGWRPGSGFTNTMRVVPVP

C1=Cc2ccccc2Nc2ccccc21 [ISB, Iminostilbene]
Kd: 18.6 µM
